One data set concerns the target T1, HCMV polymerase (Human cytomegalovirus, UniProt P08546).
T1 construct: made in house; host or cells: recombinant baculovirus-infected SF-9 cells
The data set is described as follows: HCMV polymerase assay (scintillation proximity assay, modified version). Type of data set: biochemical. The conditions noted are these: modified HCMV polymerase SPA; for IC50: compounds diluted in 100% DMSO, 4.5 mM DTT. Here is the method:
The HCMV polymerase assay is performed using a scintillation proximity assay (SPA) as described in several references, such as N. D. Cook, et al., Pharmaceutical Manufacturing International, pages 49-53 (1992); K. Takeuchi, Laboratory Practice, September issue (1992); U.S. Pat. No. 4,568,649 (1986); which are incorporated by reference herein. Reactions are performed in 96-well plates. The assay is conducted in 100 μl volume with 5.4 mM HEPES (pH 7.5), 11.7 mM KCl, 4.5 mM MgCl2, 0.36 mg/ml BSA, and 90 nM ^3H-dTTP. Assays are run with and without CHAPS, (3-[(3-cholamidopropyl)-dimethylammonio]-1-propane-sulfonate) at a final concentration of 2 mM. HCMV polymerase is diluted in enzyme dilution buffer containing 50% glycerol, 250 mM NaCl, 10 mM HEPES (pH 7.5), 100 μg/ml BSA, and 0.01% sodium azide. The HCMV polymerase, which is expressed in recombinant baculovirus-infected SF-9 cells and purified according to literature procedures, is added at 10% (or 10 μl) of the final reaction volume, i.e., 100 μl. Compounds are diluted in 50% DMSO and 10 μl are added to each well. Control wells contain an equivalent concentration of DMSO. Unless noted otherwise, reactions are initiated via the addition of 6 nM biotinylated poly(dA)-oligo(dT) template/primer to reaction mixtures containing the enzyme, substrate, and compounds of interest. Plates are incubated in a 25° C. or 37° C. H2O bath and terminated via the addition of 40 μl/reaction of 0.5 M EDTA (pH 8) per well. Reactions are terminated within the time-frame during which substrate incorporation is linear and varied depending upon the enzyme and conditions used, i.e., 30 min. for HCMV polymerase. Ten μl of streptavidin-SPA beads (20 mg/ml in PBS/10% glycerol) are added following termination of the reaction. Plates are incubated 10 min. at 37° C., then equilibrated to room temperature, and counted on a Packard Topcount. Linear regressions are performed and IC50's are calculated using computer software.
A modified version of the above HCMV polymerase assay is performed as described above, but with the following changes: Compounds are diluted in 100% DMSO until final dilution into assay buffer. In the previous assay, compounds are diluted in 50% DMSO. 4.5 mM dithiotherotol (DTT) is added to the polymerase buffer. […] All results are listed as Polymerase IC50 (μM) values. In Table 1, the term “nd” refers to activity data not determined.

T1 sequence (P08546 whole entry): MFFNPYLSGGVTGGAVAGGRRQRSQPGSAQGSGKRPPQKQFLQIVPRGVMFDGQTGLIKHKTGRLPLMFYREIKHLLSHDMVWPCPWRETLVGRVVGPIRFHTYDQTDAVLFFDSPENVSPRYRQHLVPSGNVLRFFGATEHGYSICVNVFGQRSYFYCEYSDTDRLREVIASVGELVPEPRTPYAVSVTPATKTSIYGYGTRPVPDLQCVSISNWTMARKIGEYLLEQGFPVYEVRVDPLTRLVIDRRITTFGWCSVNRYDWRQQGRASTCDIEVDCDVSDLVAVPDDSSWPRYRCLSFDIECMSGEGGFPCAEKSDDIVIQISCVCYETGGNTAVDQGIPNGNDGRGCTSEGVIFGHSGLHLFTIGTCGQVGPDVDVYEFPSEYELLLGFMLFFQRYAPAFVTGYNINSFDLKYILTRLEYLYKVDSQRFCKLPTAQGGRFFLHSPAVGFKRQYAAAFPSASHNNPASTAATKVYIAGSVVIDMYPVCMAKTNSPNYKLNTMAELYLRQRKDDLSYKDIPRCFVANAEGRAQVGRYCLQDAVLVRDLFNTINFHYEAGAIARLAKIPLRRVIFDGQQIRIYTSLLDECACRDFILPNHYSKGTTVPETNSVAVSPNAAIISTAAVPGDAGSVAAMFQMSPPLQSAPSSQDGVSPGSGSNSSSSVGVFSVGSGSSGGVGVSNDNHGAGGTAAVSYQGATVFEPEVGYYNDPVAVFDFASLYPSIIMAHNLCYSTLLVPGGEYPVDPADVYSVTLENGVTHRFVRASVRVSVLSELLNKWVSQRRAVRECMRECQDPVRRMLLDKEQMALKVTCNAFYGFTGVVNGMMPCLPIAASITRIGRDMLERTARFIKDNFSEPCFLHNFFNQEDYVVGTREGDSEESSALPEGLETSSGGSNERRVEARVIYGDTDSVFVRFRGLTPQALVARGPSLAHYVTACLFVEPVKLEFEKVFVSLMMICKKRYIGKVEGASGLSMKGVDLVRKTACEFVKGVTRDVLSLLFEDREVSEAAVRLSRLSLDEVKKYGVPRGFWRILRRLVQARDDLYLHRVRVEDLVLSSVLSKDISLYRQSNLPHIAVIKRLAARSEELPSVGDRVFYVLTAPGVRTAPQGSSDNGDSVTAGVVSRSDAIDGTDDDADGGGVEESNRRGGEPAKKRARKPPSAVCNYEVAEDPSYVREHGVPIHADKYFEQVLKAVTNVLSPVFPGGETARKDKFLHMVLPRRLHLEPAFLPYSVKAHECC

A word on the melting point: it is the temperature, or range, at which the solid turns liquid. `Cc1nc2ncc(C(=O)NCc3ccc(Cl)cc3)c(O)c2cc1Br` [Example 2, 6-bromo-N-(4-chlorobenzyl)-4-hydroxy-7-methyl[1,8]naphthyridine-3-carboxamide] registered a melting point of 269 to 270 °C. This compound also came in with an HCMV polymerase inhibition on HCMV polymerase (at 20 μm) of 39% inhibition.

Broadly, the IC50 is the point on the concentration scale where inhibition reaches its midpoint. A higher IC50 goes with a need for much substance. Regarding `Cc1nc2ncc(C(=O)NCc3ccc(Cl)cc3)c(O)c2cc1C#CCO` [Example 3, N-(4-chlorobenzyl)-4-hydroxy-6-(3-hydroxy-1-propynyl)-7-methyl[1,8]naphthyridine-3-carboxamide], the melting point was 279 to 281 °C (dec.). At HCMV polymerase, this compound yielded an IC50 of 2.1 µM.

`Cc1nc2ncc(C(=O)NCc3ccc(Cl)cc3)c(O)c2cc1I` [Example 4, N-(4-chlorobenzyl)-4-hydroxy-6-iodo-7-methyl[1,8]naphthyridine-3-carboxamide] yielded a melting point of 276 to 277 °C. Moreover, the IC50 at HCMV polymerase was 13.7 µM.

`COC(=O)c1cc2c(O)c(C(=O)NCc3ccc(Cl)cc3)cnc2nc1C` [Example 5, Methyl 6-{[(4-chlorobenzyl)amino]carbonyl}-5-hydroxy-2-methyl[1,8]naphthyridine-3-carboxylate] gave a melting point of 265 to 267 °C. This compound displayed an IC50 against HCMV polymerase of 8.5 µM.

For `Cc1ccc2c(O)c(C(=O)NCc3ccc(Cl)cc3)cnc2n1` [Example 1, N-(4-chlorobenzyl)-4-hydroxy-7-methyl[1,8]naphthyridine-3-carboxamide], the melting point is 280 to 285 °C (dec.). At HCMV polymerase, half-maximal inhibition (IC50) required 26 µM.

Values taken from patent US6413958B2, “4-hydroxy-1,8-naphthyridine-3-carboxamides as antiviral agents” (Pharmacia & Upjohn Company, priority 2000, dated 2002).
